# Source: patent publication US8198293B2, “Oxymatrine compositions and related methods for treating and preventing chronic infectious diseases” (priority 2008, dated 2012)
# Columns and labels:
# coxsackievirus B = conditions: in vitro, cell cultures; mechanism not defined; cited from earlier work
# [1] = system: Coxsackievirus B myocarditis; conditions: intravenous; chronic Coxsackievirus B myocarditis; 0% in placebo group; cited from earlier work
# [2] = system: chronic enterovirus infection / chronic fatigue; assay: Case reports: treatment of chronic fatigue (Examples 2-5); assay type: in vivo, human; conditions: Example 5 patient, before oxymatrine
# Protocol: A person with episodes of diarrhea while traveling to Tonga developed severe respiratory infection soon thereafter. The symptoms consisted of fevers to 105° F., night sweats, diffuse myalgia, tachycardia, fatigue, sinus congestion and cough, and unresponsiveness to antibiotics. The patient developed profound fatigue thereafter and went on total disability three months after the onset of symptoms. Initial Coxsackie B virus (CBV) 3, CVB4 and echovirus 9 antibody titers were 1:320, 1:160, 1:80 (normal <1:10), respectively.
# The patient could not work for the next 18 months. They were started on oxymatrine at 300 mg twice a day (bid). After taking oxymatrine for two months, they were able to take short walks, but still exhausted after one hour of activity requiring five hour naps. At the end of three months of therapy, they started having fevers of 104-105° F. for several days with marked decrease in diffuse myalgia. […] CVB3, CVB4 and echovirus antibody three months after therapy were 1:160, 1:160 and 1:20, respectively.
# A person who had recurrent episodes of debilitating fatigue became totally incapacitated after approximately 17 years. […] They went into remission but relapsed nine months later after developing a minor upper respiratory infection. They improved minimally after several months of bed rest, but was barely able to work six hours per day. They had brain fog, myalgia ( 7/10 pain) and was barely able to walk even 1-2 blocks.
# Three days after taking oxymatrine at a dose of 300 mg bid, the myalgia intensified ( 10/10 pain), especially one hour after taking the pills. One week after starting oxymatrine, routine laboratory tests including CBC, chemistry panel and creatine phosphokinase (CPK) were normal. They continued having significant fatigue and myalgia for the next three weeks, but the symptoms resolved one week after stopping the medication. Mild increase in myalgia recurred three days after resuming oxymatrine, but resolved after continuing the medication for the next two weeks. The patient felt well at the end of three months with minimal discomfort in a few muscle groups.
# Severe myalgia recurred after resuming vigorous exercise for three weeks while taking oxymatrine. They had to stop exercise for the two months allowing cessation of myalgia. After taking oxymatrine for six months, the patient felt well. Over the next six months after stopping the medication, the patient continuously performed heavy physical activities without significant difficulty. After developing another episode of upper respiratory symptoms, their symptoms relapsed. They have resumed oxymatrine but experienced increasing myalgia as the fatigue improved.
# A person with a known history of frequent respiratory infections and vasovagal syncope developed respiratory infection, which was followed by bedridden fatigue. Enteroviral protein was detected in the stomach biopsy consistent with chronic enterovirus infection. […] After vigorous exercise, they would still have relapses of bedridden fatigue for one day but continued to work 10-12 hours per day for the next 12 months, walking two miles per day. Laboratory tests were normal while on therapy.
# A person developed debilitating fatigue, sore throat, oral ulcers, vertigo, headaches and cognitive dysfunction two months after having a flu-like illness. […] Approximately four years later, the patient started taking oxymatrine. After an initial increase of gastrointestinal symptoms for the first two weeks, the patient tolerated 500 mg per day of oxymatrine.
# The symptoms continued for two weeks and resolved after stopping oxymatrine. […] They continued to improve for 12 months after taking the medication.
# [3] = system: Mycobacterium avium complex (MAC); assay: Case report: Mycobacterium avium complex infection of the lung; assay type: in vivo, human; conditions: before oxymatrine, added to four-drug therapy
# Protocol: A person with known history of Mycobacterium avium complex (MAC) infection of the lung and bronchiectasis for several years was treated with clarithromycin, ethambutol, ciprofloxacin and rifabutin for about five years. […] Intravenous amikacin was added following right middle and left lingula lobectomy. In spite of the above therapy, sputum and repeat bronchial washing obtained by bronchoscopy grew MAC within three weeks. A computed tomography scan of the chest remained unchanged except for the post-surgical changes.
# Because of persistent positive cultures despite the four drug therapies, the patient was started on oxymatrine, which they tolerated well. […] Sputum became clear in color then resolved. About two months after the start of oxymatrine, the patient had fevers, flu-like symptoms, increase in non-productive cough, bilateral uveitis and elevation of liver enzymes to 3.5 times normal values. The symptoms lasted two weeks and resolved after tapering dose of oxymatrine to 200 mg bid. Liver enzymes returned to normal within six weeks. […] The anti-MAC medications were discontinued after […] of oxymatrine therapy. The dose of oxymatrine was tapered to 100 mg tid at four and a half months of therapy and then stopped after six months of total therapy. The patient felt well at the six month follow-up.
compound,measurement,setting,value
O=C1CCC[C@@H]2[C@H]3CCCN4CCC[C@@H](CN12)[C@@H]34 [matrine],growth inhibition of coxsackievirus B,coxsackievirus B,growth inhibition
same,"patients with improvement of cardiac function, increase in lymphocyte number and function, and loss of viral markers",[1],more than 90%
CC(C)[C@H](N)C(=O)OCCOCn1cnc2c(=O)[nH]c(N)nc21 [valacyclovir],response of fatigue and other symptoms,[2],did not respond
gamma interferon,benefit on persistent positive sputum culture for MAC,[3],without significant benefit
